In PubChem BioAssay (NCI):
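Assay format: 96-well plates, 48-hour exposure. GI50 marks 50% less growth. The concentration for full growth arrest is given as TGI.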

Key:
Test in all cases: DTP human tumour cell line panel, 48 h
[1] = tested on: LOX IMVI melanoma
[2] = tested on: SF-268 CNS
[3] = tested on: NCI-H23 lung
[4] = tested on: NCI-H226 lung
[5] = tested on: CAKI-1 renal
[6] = tested on: UACC-62 melanoma
[7] = tested on: OVCAR-3 ovarian
[8] = tested on: NCI-H522 lung
[9] = tested on: MOLT-4 leukemia
[10] = tested on: A549 NSCLC
[11] = tested on: MDA-N
[12] = tested on: SNB-19 CNS
[13] = tested on: NCI-H460 lung
[14] = tested on: NCI/ADR-RES ovarian
[15] = tested on: OVCAR-5 ovarian
[16] = tested on: PC-3 prostate
[17] = tested on: SK-MEL-5 melanoma
[18] = tested on: EKVX NSCLC
[19] = tested on: ACHN renal
[20] = tested on: SK-OV-3 ovarian
[21] = tested on: HT29 colon
[22] = tested on: 786-0 renal
[23] = tested on: COLO 205 colon
[24] = tested on: IGROV1 ovarian
[25] = tested on: HS 578T breast
[26] = tested on: M14 melanoma
[27] = tested on: CCRF-CEM leukemia
[28] = tested on: DU-145 prostate
[29] = tested on: MDA-MB-435
[30] = tested on: SN12C renal
[31] = tested on: OVCAR-4 ovarian
[32] = tested on: TK-10 renal
[33] = tested on: U251 CNS
[34] = tested on: HL-60(TB) leukemia
[35] = tested on: HCT-116 colon
[36] = tested on: KM12 colon
[37] = tested on: OVCAR-8 ovarian
[38] = tested on: MCF7 breast
[39] = tested on: A498 renal
[40] = tested on: SW-620 colon
[41] = tested on: HOP-62 NSCLC
[42] = tested on: UO-31 renal
[43] = tested on: HCT-15 colon
[44] = tested on: T-47D breast
[45] = tested on: HOP-92 NSCLC
[46] = tested on: SK-MEL-2 melanoma
[47] = tested on: SK-MEL-28 melanoma
[48] = tested on: BT-549 breast
[49] = tested on: SNB-75 CNS
[50] = tested on: SF-295 CNS
[51] = tested on: SF-539 CNS
[52] = tested on: UACC-257 melanoma
[53] = tested on: MDA-MB-231 breast
[54] = tested on: RPMI-8226 leukemia
[55] = tested on: MALME-3M melanoma
[56] = tested on: HCC-2998 colon
[57] = tested on: K-562 leukemia
[58] = tested on: RXF 393 renal
[59] = tested on: SR leukemia

Structure (SMILES): CC(=O)NC1C(OCc2ccccc2)OC(CO)C(O)C1OC(C)C(=O)NC(C(=O)NC(CCC(=O)NCCCNc1ccc([N+](=O)[O-])c2[nH]c3ccccc3c(=O)c12)C(N)=O)C(C)C (configuration not stated)
- TGI [1]: > 100000 nM
- TGI [2]: > 100000 nM
- TGI [3]: > 100000 nM
- TGI [4]: > 100000 nM
- TGI [5]: > 100000 nM
- TGI [6]: > 100000 nM
- TGI [7]: > 100000 nM
- TGI [8]: > 100000 nM
- TGI [9]: > 100000 nM
- TGI [10]: > 100000 nM
- TGI [11]: > 100000 nM
- TGI [12]: > 100000 nM
- TGI [13]: > 100000 nM
- TGI [14]: > 100000 nM
- TGI [15]: > 100000 nM
- TGI [16]: > 100000 nM
- TGI [17]: > 100000 nM
- TGI [18]: > 100000 nM
- TGI [19]: > 100000 nM
- TGI [20]: > 100000 nM
- TGI [21]: > 100000 nM
- TGI [22]: > 100000 nM
- TGI [23]: > 100000 nM
- TGI [24]: > 100000 nM
- TGI [25]: > 100000 nM
- TGI [26]: > 100000 nM
- TGI [27]: > 100000 nM
- TGI [28]: > 100000 nM
- TGI [29]: > 100000 nM
- TGI [30]: > 100000 nM
- TGI [31]: > 100000 nM
- TGI [32]: > 100000 nM
- TGI [33]: > 100000 nM
- TGI [34]: > 100000 nM
- TGI [35]: > 100000 nM
- TGI [36]: > 100000 nM
- TGI [37]: > 100000 nM
- TGI [38]: > 100000 nM
- TGI [39]: > 100000 nM
- TGI [40]: > 100000 nM
- TGI [41]: > 100000 nM
- TGI [42]: > 100000 nM
- TGI [43]: > 100000 nM
- TGI [44]: > 100000 nM
- TGI [45]: > 100000 nM
- TGI [46]: > 100000 nM
- TGI [47]: > 100000 nM
- TGI [48]: > 100000 nM
- TGI [49]: > 100000 nM
- TGI [50]: > 100000 nM
- TGI [51]: > 100000 nM
- TGI [52]: > 100000 nM
- TGI [53]: > 100000 nM

Structure (SMILES): C=C1c2c(n(S(=O)(=O)c3ccccc3)c3ccccc23)[C@@]2(C(=O)OC)CC3C=CC2N1C3
- TGI [1]: > 100000 nM
- TGI [2]: > 100000 nM
- TGI [3]: > 100000 nM
- TGI [4]: > 100000 nM
- TGI [5]: > 100000 nM
- TGI [6]: > 100000 nM
- TGI [7]: > 100000 nM
- TGI [8]: > 100000 nM
- TGI [9]: > 100000 nM
- TGI [10]: > 100000 nM
- TGI [11]: > 100000 nM
- TGI [12]: > 100000 nM
- TGI [13]: > 100000 nM
- TGI [14]: > 100000 nM
- TGI [15]: > 100000 nM
- TGI [16]: > 100000 nM
- TGI [18]: > 100000 nM
- TGI [19]: > 100000 nM
- TGI [20]: > 100000 nM
- TGI [21]: > 100000 nM
- TGI [22]: > 100000 nM
- TGI [23]: > 100000 nM
- TGI [24]: > 100000 nM
- TGI [26]: > 100000 nM
- TGI [27]: > 100000 nM
- TGI [54]: > 100000 nM
- TGI [28]: > 100000 nM
- TGI [29]: > 100000 nM
- TGI [30]: > 100000 nM
- TGI [55]: > 100000 nM
- TGI [31]: > 100000 nM
- TGI [32]: > 100000 nM
- TGI [33]: > 100000 nM
- TGI [34]: > 100000 nM
- TGI [35]: > 100000 nM
- TGI [36]: > 100000 nM
- TGI [37]: > 100000 nM
- TGI [38]: > 100000 nM
- TGI [40]: > 100000 nM
- TGI [41]: > 100000 nM
- TGI [56]: > 100000 nM
- TGI [43]: > 100000 nM
- TGI [44]: > 100000 nM
- TGI [45]: > 100000 nM
- TGI [46]: > 100000 nM
- TGI [47]: > 100000 nM
- TGI [48]: > 100000 nM
- TGI [57]: > 100000 nM
- TGI [58]: > 100000 nM
- TGI [49]: > 100000 nM
- TGI [50]: > 100000 nM
- TGI [51]: > 100000 nM
- TGI [52]: > 100000 nM
- TGI [53]: > 100000 nM

Structure (SMILES): CCN(CC)CCOc1nc2ccccc2c2c1-c1ccc(OC)cc1C2=O
- GI50 [1]: 432 nM
- TGI [1]: 1810 nM
- GI50 [2]: 445 nM
- TGI [2]: 2050 nM
- GI50 [3]: 1270 nM
- TGI [3]: 4070 nM
- GI50 [4]: 935 nM
- TGI [4]: 4420 nM
- GI50 [5]: 486 nM
- TGI [5]: 3660 nM
- GI50 [6]: 1700 nM
- TGI [6]: 4480 nM
- GI50 [7]: 642 nM
- TGI [7]: 2150 nM
- GI50 [8]: 613 nM
- TGI [8]: 2400 nM
- GI50 [9]: 251 nM
- TGI [9]: 924 nM
- GI50 [10]: 514 nM
- TGI [10]: 4550 nM
- GI50 [12]: 788 nM
- TGI [12]: 6600 nM
- GI50 [13]: 317 nM
- TGI [13]: 1300 nM
- GI50 [14]: 807 nM
- TGI [14]: 34500 nM
- GI50 [15]: 1610 nM
- TGI [15]: 7510 nM
- GI50 [16]: 1440 nM
- TGI [16]: 23300 nM
- GI50 [17]: 1520 nM
- TGI [17]: 3090 nM
- GI50 [18]: 1590 nM
- TGI [18]: 4790 nM
- GI50 [59]: 316 nM
- TGI [59]: 1070 nM
- GI50 [19]: 364 nM
- TGI [19]: 2020 nM
- GI50 [20]: 2480 nM
- TGI [20]: > 36600 nM
- GI50 [21]: 334 nM
- TGI [21]: 1540 nM
- GI50 [22]: 1170 nM
- TGI [22]: 2680 nM
- GI50 [23]: 490 nM
- TGI [23]: 1880 nM
- GI50 [24]: 384 nM
- TGI [24]: 2630 nM
- GI50 [25]: 1190 nM
- TGI [25]: 5780 nM
- GI50 [26]: 1360 nM
- TGI [26]: 3000 nM
- GI50 [27]: 267 nM
- TGI [27]: 2230 nM
- GI50 [54]: 449 nM
- TGI [54]: 2150 nM
- GI50 [28]: 505 nM
- TGI [28]: 2160 nM
- GI50 [29]: 881 nM
- TGI [29]: 2360 nM
- GI50 [30]: 502 nM
- TGI [30]: 6210 nM
- GI50 [55]: 628 nM
- TGI [55]: 1970 nM
- GI50 [31]: 1360 nM
- TGI [31]: 6830 nM
- GI50 [32]: 1850 nM
- TGI [32]: 12600 nM
- GI50 [33]: 446 nM
- TGI [33]: 2300 nM
- GI50 [34]: 395 nM
- TGI [34]: 1850 nM
- GI50 [35]: 331 nM
- TGI [35]: 1550 nM
- GI50 [36]: 395 nM
- TGI [36]: 1580 nM
- GI50 [37]: 527 nM
- TGI [37]: 5700 nM
- GI50 [38]: 345 nM
- TGI [38]: 2230 nM
- GI50 [39]: 728 nM
- TGI [39]: 2180 nM
- GI50 [40]: 282 nM
- TGI [40]: 1580 nM
- GI50 [41]: 1130 nM
- GI50 [42]: 130 nM
- TGI [42]: 1410 nM
- GI50 [56]: 1260 nM
- TGI [56]: 3210 nM
- GI50 [43]: 472 nM
- TGI [43]: 4820 nM
- GI50 [44]: 2510 nM
- TGI [44]: 8800 nM
- GI50 [45]: 2090 nM
- TGI [45]: > 28600 nM
- GI50 [46]: 2140 nM
- TGI [46]: 4360 nM
- GI50 [47]: 1630 nM
- TGI [47]: 3290 nM
- GI50 [48]: 3290 nM
- TGI [48]: 13800 nM
- GI50 [57]: 276 nM
- TGI [57]: 1190 nM
- GI50 [58]: 1630 nM
- TGI [58]: 4440 nM
- GI50 [49]: 1440 nM
- TGI [49]: 5190 nM
- GI50 [50]: 1910 nM
- TGI [50]: 12400 nM
- GI50 [51]: 1340 nM
- TGI [51]: 4250 nM
- GI50 [52]: 1600 nM
- TGI [52]: 3380 nM
- GI50 [53]: 1400 nM
- TGI [53]: 6220 nM
